Measured values published in patent US20230293539A1, “MLL1-WDR5 PROTEIN-PROTEIN INTERACTION INHIBITOR COMPOUNDS AND USES THEREOF” (HUYABIO International, LLC, priority 2022, published 2023).

How the values were obtained:
[1] = system: MV 411 cells; test: Cell Viability Assay (CellTiter-Glo); format: cell-based; details: Homo sapiens, MV4-11, 72 hours, read-out: IC50 (anti-proliferative activity against leukemia cells)
Experimental: Cell lines and maintenance: All cell lines (MV 411) used for in vitro and in vivo studies were supplied as part of Wuxi AppTech cell bank. Cell lines were maintained in a medium supplemented with 10% heat inactivated fetal bovine serum at 37° C., in an atmosphere of 5% CO2, in air. The tumor cells were routinely subcultured twice weekly. The cells growing in an exponential growth phase were used for the in vitro cell potency and in vivo efficacy studies.
EXAMPLE 1: Cell Viability Assay: For cell cytotoxicity assays, 2000 cells/well were plated in 384-well plates. Twenty four hours after plating, cells were treated with inhibitors at the indicated compound concentrations. On Day 3 (72 hours), cells were lysed with CellTiter-Glo® Luminescent Cell Viability Assay reagent (Promega) and luminescence was read using the EnVision Multi-plate reader. To calculate IC50, a dose-response curve is generated using a nonlinear regression model with a sigmoidal dose response. The formula of surviving rate is shown below. IC50 values were automatically generated by GraphPad Prism 8.0. See FIG. 1A and FIG. 1B and Tables 3 and 4.

[2] = Compound formulation stability assay; format: physicochemical; details: 10 mg/mL in 10% DMSO/10% solutol HS 15/80% water, 2-8° C.
Experimental: Compound formulation stability assay: Test articles were formulated in 10% DMSO/10% solutol HS 15/80% water and stored at 4° C. Formulated compounds were analyzed by a HPLC-UV method for actual concentrations and % remaining on Day 1, 4 and 7 after formulation to determine the stability of the formulated test article. The HPLC system was equipped with Shimadzu LC-20 high-performance liquid chromatograph, SIL-20AC auto sampler, LC-20AB pump and SPD-M20A detector. A Waters XBridge C18 (4.6*100 mm) column was applied for the separation. […]

[3] = Mouse PK (oral); format: in vivo, C57/B16 mice; details: for Cmax: plasma; for AUC(0-t) / half-life: C57/B16, plasma
Experimental: Mouse PK: Animals were dosed with a single intravenous bolus or oral gavage administration in naïve C57/B16 mice (Beijing Vital River Laboratory Animal Co., LTD). Blood samples were collected at the respective sampling time points. The quantification of compound concentrations in mouse or rat plasma was quantified using LC-MS/MS method. Plasma concentration versus time data was analyzed by non-compartmental mode approaches using the WinNonlin software program (version 6.3 or above, Pharsight). Pharmacokinetic parameters, including C0 (initial concentration after drug administration), […], Vdss (volume of distribution), Cmax (maximum peak concentration of the drug), Tmax (time required to reach Cmax) T1/2 (time required for drug concentration to decrease by 50% after administration), AUC0-last (area under the concentration-time curve from dosing time t=0 to the time of the last measured concentration), AUC0-inf (total drug exposure across time), MRT0-last (mean residence time from dosing time t=0 to the time of the last measured concentration), MRT0-inf f (mean residence time of total drug exposure), bioavailability (%) (the percentage (or the fraction F) of an administered drug dose that reaches the systemic circulation) for IV and PO groups were calculated. See Table 7 and FIGS. 6A, 6B, 6C and 6D.

[4] = Dog PK (oral); format: in vivo, Beagle dogs; details: for Cmax / AUC(0-t) / half-life: Beagle, plasma
Experimental: Dog PK: Fasted or fed non-naïve Beagle dogs (Marshall Bioresources, Beijing, China) were administered a single intravenous bolus or oral gavage administration of test compounds at respective doses. Blood samples for plasma isolation were collected from a peripheral vessel, from restrained, non-sedated animals at the respective sampling time points. The quantification of compound concentrations in dog plasma was quantified using LC-MS/MS method. Plasma concentration versus time data was analyzed by non-compartmental mode approaches using the WinNonlin software program (version 6.3 or above, Pharsight). Pharmacokinetic parameters, including C0, CL, Vdss, Cmax, Tmax T1/2, AUC0-last, AUC0-inf, MRT0-last, MRT0-inf, bioavailability (%) for IV and PO groups were calculated. See FIGS. 9A, […], 9C and FIGS. 10A, 10B, 10C, and 10D.

[5] = Liver S9 stability assay; format: in vitro ADME, human
Experimental: (§1) Liver S9 stability assay: Test compounds (1 μM) and positive control were incubated with 5 mM GSH and liver S9 (1 mg protein/ml) from multiple species (including human, monkey, dog, rat and mouse) at 37° C. at 0, 10, 30, and 60 minutes in duplicate. After adding the stop solution, 100 μL of supernatant were analyzed by LC-MS/MS. The % remaining of test compound, T1/2 (min), and CLint (μL/min/mg) were calculated and were reported.

[6] = Liver S9 stability assay; format: in vitro ADME, rat
Experimental: as §1

[7] = Liver S9 stability assay; format: in vitro ADME, dog
Experimental: as §1

[8] = Liver S9 stability assay; format: in vitro ADME, mouse
Experimental: as §1

[9] = WBS (whole blood stability) assay; format: in vitro ADME; details: for % Remaining after 60 min incubation: 2 μM, 37° C.
Experimental: WBS (whole blood stability) assay: The blood samples were collected freshly from multiple species including human, monkey, dog, rat and mouse. 2 μM of test compound and positive control were incubated with the whole blood at 37° C. at 0, 10, 30, 60, and 120 minutes in duplicate. After adding the stop solution, 200 μL of supernatant were analyzed by LC-MS/MS. The % remaining of test compound and T1/2 (min) were calculated and reported.

## C[C@@H]1CN(c2ncc(-c3cc(Nc4ncnc(Cl)c4N)c(N4CCN(C)[C@@H](C)C4)cc3F)cn2)C[C@H](C)O1 [DDO-2213_023, 6-chloro-N4-(5-(2-((2S,6R)-2,6-dimethylmorpholino)pyrimidin-5-yl)-2-((S)-3,4-dimethylpiperazin-1-yl)-4-fluorophenyl)pyrimidine-4,5-diamine]
[1]
  IC50: 4.06 µM
[2]; Day 0
  Accuracy % (Day 0): 89.9%
  Formulation Appearance (Day 0): clear solution
  Remaining % (Day 0): 100%
[2]; Day 1
  Accuracy % (Day 1): 81.3%
  Formulation Appearance (Day 1): clear solution
  Remaining % (Day 1): 90.4%
[2]; Day 4
  Accuracy % (Day 4): 92.2%
  Formulation Appearance (Day 4): clear solution
  Remaining % (Day 4): 100%
[2]; Day 7
  Accuracy % (Day 7): 91.5%
  Formulation Appearance (Day 7): clear solution
  Remaining % (Day 7): 99.1%
[3]; 10 mpk
  F: 82.5%
[3]; 30 mpk
  F: 93.8%
[3]; C57/B16, 10 mg/kg, 10 mpk
  Cmax: 1.32 µM
[3]; C57/B16, 30 mg/kg, 30 mpk
  Cmax: 3.43 µM
[3]; 10 mg/kg, 10 mpk
  AUC(0-t): 16.4 µM·h
  half-life: 11.1 h
[3]; 30 mg/kg, 30 mpk
  AUC(0-t): 56 µM·h
  half-life: 13.3 h
[4]; 1.5 mpk
  F: 105.0%
[4]; 4.5 mpk
  F: 88.8%
[4]; 1.5 mg/kg, 1.5 mpk
  Cmax: 0.188 µM
  AUC(0-t): 5.28 µM·h
  half-life: 63.6 h
[4]; 4.5 mg/kg, 4.5 mpk
  Cmax: 0.445 µM
  AUC(0-t): 13.4 µM·h
  half-life: 48.2 h
[5]; Human liver S9
  half-life at 1 μM: > 2.42 h
  microsomal CLint at 1 μM: < 4.8 µL/min/mg
[5]; Human liver S9, 1 μM, 5 mM GSH, 37° C.
  % Remaining after 60 min incubation: 81.8%
[6]; Rat liver S9
  half-life at 1 μM: > 2.42 h
  microsomal CLint at 1 μM: < 4.8 µL/min/mg
[6]; Rat liver S9, 1 μM, 5 mM GSH, 37° C.
  % Remaining after 60 min incubation: 101%
[7]; Dog liver S9
  half-life at 1 μM: > 2.42 h
  microsomal CLint at 1 μM: < 4.8 µL/min/mg
[7]; Dog liver S9, 1 μM, 5 mM GSH, 37° C.
  % Remaining after 60 min incubation: 112%
[8]; Mouse liver S9
  half-life at 1 μM: 2.1 h
  microsomal CLint at 1 μM: 5.5 µL/min/mg
[8]; Mouse liver S9, 1 μM, 5 mM GSH, 37° C.
  % Remaining after 60 min incubation: 71.5%
[9]; Dog whole blood
  half-life at 2 μM: > 2.41 h
  % Remaining after 60 min incubation: 97.3%
[9]; Human whole blood
  half-life at 2 μM: 8.75 h
  % Remaining after 60 min incubation: 103%
[9]; Mouse whole blood
  half-life at 2 μM: > 2.41 h
  % Remaining after 60 min incubation: 103%
[9]; Rat whole blood
  half-life at 2 μM: > 2.41 h
  % Remaining after 60 min incubation: 103%
